The source of these data is patent US11865158B2, “Process and composition matter of nanoparticle formulation for systemic treatment of sepsis” (PURDUE RESEARCH FOUNDATION, priority 2019, dated 2024).

Like-named read-outs stand apart in the source and are kept apart here.

The test system of one series is THP-1 monocytes. As to the kind of experiment: Cytotoxicity by propidium iodide staining and flow cytometry. The format is cell-based, human. Particulars: equivalent to 50-150 μg/mL PMB, 24 h. The procedure:
As a cationic polypeptide, PMB is known to be effective in neutralizing LPS as early as in 1967, but its systemic application is hampered by dose-limiting nephro- and neurotoxicity. PMB manifests the toxicity via the increased membrane permeability, resulting in increased influx of ions and water and subsequent cell swelling and lysis. To test if the toxicity can be reduced by supplying PMB as a NP-bound form, THP-1 monocytes or J774a.1 macrophages were incubated with D-TZP or free PMB at a concentration equivalent to 50-150 μg/mL PMB for 24 h, stained with propidium iodide (PI), which penetrates damaged cell membrane but not intact membrane, and analyzed with flow cytometry. […] Substantial reduction of membrane damage is attributable to the surface-bound ZWC, which provides a negatively charged cloud beyond the remit of PMB due to the large size, attenuating direct exposure of PMB to cell membrane.
Cytotoxicity of PMB and D-TZP. Cytotoxic concentration range of free PMB was first determined with THP1-XBlue-MD2-CD14 cells by the MTT assay. […] The PI fluorescence of 10,000 cells was measured with the BD Accuri C6 flow cytometer (BD Biosciences, San Jose, CA) via the FL-2 detector. Nanoparticles and cell debris were excluded by gating, but all cell population (dead or alive) was analyzed. […]
(In general: Flow cytometry measures light scatter and fluorescence of single cells or particles in a stream.)

Another series deals with C57BL/6 male mice. Particulars: known value, cited from earlier work.
A further series concerns J774a.1 macrophages. As to the kind of experiment: Effect on cell membrane, SEM. The format is cell-based. Particulars: eq. to 150 μg/mL PMB, 12 h. The method, then: Effect of PMB and D-TZP on cell membrane. The effect of D-TZP on J774A.1 cell membrane was monitored by two methods (scanning electron microscopy and confocal microscopy). For scanning electron microscopy, J774A.1 macrophages were plated in a 6-well plate at a density of 3×10^5 cells per well with 3 mL of complete medium. After overnight incubation at 37° C. in a 5% CO2 atmosphere, the cells were treated with either free PMB or D-TZP at a concentration equivalent to 150 μg/mL PMB for 12 h. The cells were centrifuged at 233 relative centrifugal force (rcf) for 3 min. The medium was removed, and 2.5% glutaraldehyde solution was added for fixation overnight at 4° C. The cells were then rinsed three times with water (5 min each) and incubated in 2% Osmium tetroxide for 1 h. After rinsing another three times with water (5 min each), the cells were dehydrated with a series of ethanol gradients (50%, 75%, 95%) for 10 minutes at each step. The dehydrated cells were rinsed with 100% ethanol three times for 10 minutes each time, stored in a 1:1 mixture of HMDS and ethanol in 1:1 for 30 min, and rinsed with 100% HMDS for 30 min twice. After overnight drying, the cells were placed on a carbon tape attached to an aluminum stud and coated with platinum for SEM analysis. The morphology of treated J774a.1 cells then was observed by a FEI NOVA NanoSEM scanning electron microscope (SEM). […]

Series [1] concerns Klebsiella pneumoniae NR-41920. As to the kind of experiment: Effect on bacterial membrane (SEM). The conditions noted are these: 5×MIC for 1.5 h. The format is cell-based. The method, then: Effect on bacterial membrane. […] The bacteria were collected by centrifugation at 5000 rcf for 10 min, fixed in 2.5% glutaraldehyde solution at 4° C., and placed on poly-1-lysine coated coverslip. After 1 h, the coverslip was rinsed three times with water (5 min each) and incubated in 2% Osmium tetroxide for 30 min. SEM imaging was performed as described in previous section.

For a further series, the system named is LPS-induced sepsis. As to the kind of experiment: Therapeutic efficacy in LPS-induced endotoxemia (sepsis) model. In kind it is in vivo, C57BL/6 mice. Particulars: free PMB at the respective LD50 (20 mg/kg for IP and 5 mg/kg for IV). The method, then:
The therapeutic efficacy of D-TZP was tested in a mouse model of sepsis. C57BL/6 male mice were given IP injection of 20 mg/kg LPS, which causes systemic inflammation similar to initial clinical features of sepsis. TZP or D-TZP was administered in three regimens:
Therapeutic efficacy in LPS-induced endotoxemia model. 6-8 week-old C57BL/6 mice (male and female) were challenged with an intraperitoneal injection of 20 mg/kg LPS solution (5% dextrose) via 20G catheter (Exel International Disposable Safelet I.V.), which causes systemic inflammation similar to initial clinical features of sepsis^17,19. […] A vehicle control (5% dextrose) or an equivalent dose of free PMB were given in the same manner for comparison. […] Buprenorphine (0.05 mg/kg) was injected subcutaneously shortly after the treatment and every 2-12 h as the signs of discomfort were observed. The body temperature was measured with a Pocket Infrared Thermometer (Braintree Scientific, Inc., Braintree, MA) at each observation, and the body weight was recorded at each observation. When an animal was found dead at the time of observation, the time of death was estimated to be in the halfway of the last two observation times. When animals were lethargic and cold at the time of observation, the animals were euthanized by CO2 asphyxiation. The mouse survival was monitored for 2 weeks.

What is called LD50 is the dose expected to kill half of the subjects tested. Regarding polymyxin B [PMB], the “PI fluorescence (membrane damage)” value in the series with THP-1 monocytes is “dose-dependent PI fluorescence signal”. Besides, the results for the LD50 in the series with C57BL/6 male mice (IP) and in the series with C57BL/6 male mice (IV) were 20 mg/kg and 5 mg/kg, respectively. Further, in the series on J774a.1 macrophages, the “cell membrane morphology by SEM” value was “deformed membrane morphology”. Further, the “bacterial membrane morphology by SEM” value in series [1] is given as “induced deformation of bacterial membrane”. Besides, the “protection of challenged animals” value with LPS-induced sepsis is “did not protect the challenged animals”.
